Experimental data from ChEMBL document CHEMBL1201862, “PubChem BioAssay data set” (2004).
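Interpolation was linear, between the two tested concentrations surrounding the appropriate level; five concentrations were tested over 48 hours in 96-well plates. The concentration for 50% growth inhibition is given as GI50.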 The source made the active and inactive calls. Cut-off read from the data, not from the text of the source: active = GI50 up to about 1.1 µM and inactive = higher.

What was measured:
Test in all cases: NCI-60 cell line screen, 48 h
786-0 = test system: 786-0
A498 = test system: A498
A549 = test system: A549
ACHN = test system: ACHN
CAKI-1 = test system: CAKI-1
CCRF-CEM = test system: CCRF-CEM
COLO 205 = test system: COLO 205
DLD-1 = test system: DLD-1
DMS-114 = test system: DMS-114
DMS-273 = test system: DMS-273
EKVX = test system: EKVX
HCC 2998 = test system: HCC 2998
HCT-116 = test system: HCT-116
HCT-15 = test system: HCT-15
HL-60 = test system: HL-60
HOP-18 = test system: HOP-18
HOP-62 = test system: HOP-62
HT-29 = test system: HT-29
IGROV-1 = test system: IGROV-1
K562 = test system: K562
KM-20L2 = test system: KM-20L2
KM12 = test system: KM12
LOX IMVI = test system: LOX IMVI
LXFL 529 = test system: LXFL 529
M14 = test system: M14
M19-MEL = test system: M19-MEL
MOLT-4 = test system: MOLT-4
Malme-3M = test system: Malme-3M
NCI-H226 = test system: NCI-H226
NCI-H460 = test system: NCI-H460
NCI-H522 = test system: NCI-H522
OVCAR-3 = test system: OVCAR-3
OVCAR-4 = test system: OVCAR-4
OVCAR-5 = test system: OVCAR-5
OVCAR-8 = test system: OVCAR-8
RPMI-8226 = test system: RPMI-8226
RXF 393 = test system: RXF 393
RXF 631 = test system: RXF 631
SF-268 = test system: SF-268
SF-295 = test system: SF-295
SF-539 = test system: SF-539
SK-MEL-28 = test system: SK-MEL-28
SK-MEL-2 = test system: SK-MEL-2
SK-MEL-5 = test system: SK-MEL-5
SK-OV-3 = test system: SK-OV-3
SN12C = test system: SN12C
SNB-19 = test system: SNB-19
SNB-75 = test system: SNB-75
SNB-78 = test system: SNB-78
SR = test system: SR
TK-10 = test system: TK-10
U-251 = test system: U-251
UACC-257 = test system: UACC-257
UACC-62 = test system: UACC-62
UO-31 = test system: UO-31
XF498 = test system: XF498

## CCOC(=O)CC(C)C1(C(=O)OCC)CCCCC1=O (stereo unspecified)
786-0
  GI50: 55 µM (inactive)
A498
  GI50: > 100 µM (inactive)
A549
  GI50: > 100 µM (inactive)
ACHN
  GI50: > 100 µM (inactive)
CAKI-1
  GI50: > 100 µM (inactive)
CCRF-CEM
  GI50: > 100 µM (inactive)
COLO 205
  GI50: 86.7 µM (inactive)
DLD-1
  GI50: 35 µM (inactive)
DMS-114
  GI50: 20.3 µM (inactive)
DMS-273
  GI50: 15 µM (inactive)
EKVX
  GI50: > 100 µM (inactive)
HCC 2998
  GI50: > 100 µM (inactive)
HCT-116
  GI50: 46 µM (inactive)
HCT-15
  GI50: 22.9 µM
HL-60
  GI50: > 100 µM (inactive)
HOP-18
  GI50: > 100 µM (inactive)
HOP-62
  GI50: > 100 µM (inactive)
HT-29
  GI50: > 100 µM (inactive)
IGROV-1
  GI50: > 100 µM (inactive)
K562
  GI50: > 100 µM (inactive)
KM-20L2
  GI50: 98.9 µM (inactive)
KM12
  GI50: > 100 µM (inactive)
LOX IMVI
  GI50: 67.3 µM (inactive)
LXFL 529
  GI50: > 100 µM (inactive)
M14
  GI50: > 100 µM (inactive)
M19-MEL
  GI50: > 100 µM (inactive)
MOLT-4
  GI50: > 100 µM (inactive)
Malme-3M
  GI50: > 100 µM (inactive)
NCI-H226
  GI50: > 100 µM (inactive)
NCI-H460
  GI50: > 100 µM (inactive)
NCI-H522
  GI50: > 100 µM (inactive)
OVCAR-3
  GI50: > 100 µM (inactive)
OVCAR-4
  GI50: > 100 µM (inactive)
OVCAR-5
  GI50: > 100 µM (inactive)
OVCAR-8
  GI50: > 100 µM (inactive)
RPMI-8226
  GI50: 25.5 µM (inactive)
RXF 393
  GI50: > 100 µM (inactive)
RXF 631
  GI50: > 100 µM (inactive)
SF-268
  GI50: > 100 µM (inactive)
SF-295
  GI50: > 100 µM (inactive)
SF-539
  GI50: > 100 µM (inactive)
SK-MEL-28
  GI50: > 100 µM (inactive)
SK-MEL-2
  GI50: > 100 µM (inactive)
SK-MEL-5
  GI50: > 100 µM (inactive)
SK-OV-3
  GI50: > 100 µM (inactive)
SN12C
  GI50: > 100 µM (inactive)
SNB-19
  GI50: > 100 µM (inactive)
SNB-75
  GI50: > 100 µM (inactive)
SNB-78
  GI50: > 100 µM (inactive)
SR
  GI50: 25.6 µM (inactive)
TK-10
  GI50: > 100 µM (inactive)
U-251
  GI50: > 100 µM (inactive)
UACC-257
  GI50: > 100 µM (inactive)
UACC-62
  GI50: > 100 µM (inactive)
UO-31
  GI50: > 100 µM (inactive)
XF498
  GI50: > 100 µM (inactive)
